The numbers were not newly measured in patent US6241994A, “Solid TCMTB formulations” (Buckman Laboratories International, Inc., priority 1998, dated 2001), which cites them from elsewhere.

For series [1] the following is noted: for pH above which the substance decomposes: decomposition at a pH above the value.
The conditions of series [2]: unstable at temperatures greater than the value.

As to `N#CSCSC#N` [MTC, methylene bisthiocyanate], in series [1] (acidic systems, ambient temperature), the “stability in acidic systems” value is recorded as “stable”. Also, the “pH above which the substance decomposes” value in series [1] is reported as “above 7.5”. Moreover, the “solubility in most of organic solvents” value (most of organic solvents) was “soluble”. The “temperature above which considered unstable” value in series [2] was “greater than 100 °C”.

Regarding `N#CSCSc1nc2ccccc2s1` [TCMTB, 2-(thiocyanomethylthio)-benzothiazole], in series [1], the “pH above which the substance decomposes” value is “above 8.0”. Moreover, the solubility in water result (in water) is reported as “about 0.033 g/l”.
